Laboratory results as given in ChEMBL document CHEMBL3046322, “Insect growth regulatory effects by diterpenes from Calceolaria talcana Grau & Ehrhart (Calceolariaceae: Scrophulariaceae) against Spodoptera frugiperda and Drosophila melanogaster” (2013).
Active and inactive are the calls of the source. The calls are words filed in the database; no cut-off is given here.

Assays:
Spodoptera frugiperda [1] = experiment: Growth inhibitory activity against first-instar larval stage of Spodoptera frugiperda (fall armyworm) fed with compound incorporated diet assessed as weight gained at 50 ug/ml after 21 days (reference value: 100%); assay type: functional
Spodoptera frugiperda [2] = experiment: Growth inhibitory activity against po dosed Spodoptera frugiperda (fall armyworm) larvae assessed as promotion of apolysis to fifth instar with ecdysis inhibition at 5 to 20 ug/ml; assay type: functional, organism-based
Spodoptera frugiperda [3] = experiment: Insecticidal activity against first-instar larval stage of Spodoptera frugiperda (fall armyworm) fed with compound incorporated diet assessed as mortality at 35 ug/ml after 7 days (reference value: 5.6%); assay type: functional; details: 168 h
Spodoptera frugiperda [4] = experiment: Growth inhibitory activity against first-instar larval stage of Spodoptera frugiperda (fall armyworm) fed with compound incorporated diet assessed as weight gained at 35 ug/ml after 7 days (reference value: 100%); assay type: functional; set-up: scale not given: the % may be the effect or the level left
Spodoptera frugiperda [5] = experiment: Growth inhibitory activity against first-instar larval stage of Spodoptera frugiperda (fall armyworm) fed with compound incorporated diet assessed as weight gained at 20 ug/ml after 7 days (reference value: 100%); assay type: functional; set-up: scale not given: the % may be the effect or the level left
Spodoptera frugiperda [6] = experiment: Growth inhibitory activity against first-instar larval stage of Spodoptera frugiperda (fall armyworm) fed with compound incorporated diet assessed as length gained at 5 ug/ml after 21 days (reference value: 100%); assay type: functional
Spodoptera frugiperda [7] = experiment: Growth inhibitory activity against first-instar larval stage of Spodoptera frugiperda (fall armyworm) fed with compound incorporated diet assessed as length gained at 10 ug/ml after 7 days (reference value: 100%); assay type: functional
Spodoptera frugiperda [8] = experiment: Growth inhibitory activity against Spodoptera frugiperda (fall armyworm) larvae fed with compound containing diet assessed as relative growth index at 10 ug/ml (reference value: 1.0 no_unit); assay type: functional
Spodoptera frugiperda [9] = experiment: Growth inhibitory activity against first-instar larval stage of Spodoptera frugiperda (fall armyworm) fed with compound incorporated diet assessed as length gained at 5 ug/ml after 7 days (reference value: 100%); assay type: functional; set-up: scale not given: the % may be the effect or the level left
Spodoptera frugiperda [10] = experiment: Insecticidal activity against first-instar larval stage of Spodoptera frugiperda (fall armyworm) fed with compound incorporated diet assessed as mortality at 5 ug/ml after 7 days (reference value: 5.6%); assay type: functional; details: 168 h
Spodoptera frugiperda [11] = experiment: Insecticidal activity against first-instar larval stage of Spodoptera frugiperda (fall armyworm) fed with compound incorporated diet assessed as mortality at 10 ug/ml after 21 days (reference value: 5.6%); assay type: functional; details: 504 h
Spodoptera frugiperda [12] = experiment: Insecticidal activity against first-instar larval stage of Spodoptera frugiperda (fall armyworm) fed with compound incorporated diet assessed as mortality at 5 ug/ml after 21 days (reference value: 5.6%); assay type: functional; details: 504 h
Drosophila melanogaster [13] = experiment: Insecticidal activity against Drosophila melanogaster larvae fed with compound incorporated diet assessed as mortality at 50 ug/ml after 72 hr by not choice test (reference value: 0%); assay type: functional
Spodoptera frugiperda [14] = experiment: Growth inhibitory activity against first-instar larval stage of Spodoptera frugiperda (fall armyworm) fed with compound incorporated diet assessed as length gained at 10 ug/ml after 21 days (reference value: 100%); assay type: functional
Spodoptera frugiperda [15] = experiment: Insecticidal activity against first-instar larval stage of Spodoptera frugiperda (fall armyworm) fed with compound incorporated diet assessed as mortality at 40 ug/ml after 7 days; assay type: functional, organism-based
Spodoptera frugiperda [16] = experiment: Growth inhibitory activity against Spodoptera frugiperda (fall armyworm) larvae fed with compound containing diet assessed as reduction in survival pupation at >10 ug/ml; assay type: functional
Spodoptera frugiperda [17] = experiment: Growth inhibitory activity against first-instar larval stage of Spodoptera frugiperda (fall armyworm) fed with compound incorporated diet assessed as length gained at 50 ug/ml after 21 days (reference value: 100%); assay type: functional
Spodoptera frugiperda [18] = experiment: Growth inhibitory activity against first-instar larval stage of Spodoptera frugiperda (fall armyworm) fed with compound incorporated diet assessed as length gained at 50 ug/ml after 7 days (reference value: 100%); assay type: functional
Spodoptera frugiperda [19] = experiment: Growth inhibitory activity against first-instar larval stage of Spodoptera frugiperda (fall armyworm) fed with compound incorporated diet assessed as weight gained at 20 ug/ml after 21 days (reference value: 100%); assay type: functional
Spodoptera frugiperda [20] = experiment: Insecticidal activity against first-instar larval stage of Spodoptera frugiperda (fall armyworm) fed with compound incorporated diet assessed as mortality at 50 to 100 ug/ml after 7 days; assay type: functional
Spodoptera frugiperda [21] = experiment: Growth inhibitory activity against Spodoptera frugiperda (fall armyworm) larvae fed with compound containing diet assessed as reduction in adult emergence at 20 ug/ml; assay type: functional
Spodoptera frugiperda [22] = experiment: Growth inhibitory activity against first-instar larval stage of Spodoptera frugiperda (fall armyworm) fed with compound incorporated diet assessed as weight gained at 5 ug/ml after 21 days (reference value: 100%); assay type: functional
Spodoptera frugiperda [23] = experiment: Growth inhibitory activity against Spodoptera frugiperda (fall armyworm) larvae fed with compound containing diet assessed as relative growth index at 20 ug/ml (reference value: 1.0 no_unit); assay type: functional
Spodoptera frugiperda [24] = experiment: Insecticidal activity against first-instar larval stage of Spodoptera frugiperda (fall armyworm) fed with compound incorporated diet assessed as mortality at 10 ug/ml after 7 days (reference value: 5.6%); assay type: functional; details: 168 h
Drosophila melanogaster [25] = experiment: Insecticidal activity against Drosophila melanogaster larvae fed with compound incorporated diet assessed as mortality at 10 ug/ml after 72 hr by not choice test (reference value: 0%); assay type: functional
Spodoptera frugiperda [26] = experiment: Growth inhibitory activity against Spodoptera frugiperda (fall armyworm) larvae fed with compound containing diet assessed as growth index at 10 ug/ml (reference value: 0.95 +/-0.02 no_unit); assay type: functional
Spodoptera frugiperda [27] = experiment: Growth inhibitory activity against first-instar larval stage of Spodoptera frugiperda (fall armyworm) fed with compound incorporated diet assessed as weight gained at 10 ug/ml after 21 days (reference value: 100%); assay type: functional
Spodoptera frugiperda [28] = experiment: Growth inhibitory activity against first-instar larval stage of Spodoptera frugiperda (fall armyworm) fed with compound incorporated diet assessed as length gained at 35 ug/ml after 7 days (reference value: 100%); assay type: functional
Spodoptera frugiperda [29] = experiment: Growth inhibitory activity against first-instar larval stage of Spodoptera frugiperda (fall armyworm) fed with compound incorporated diet assessed as length gained at 20 ug/ml after 21 days (reference value: 100%); assay type: functional; set-up: scale not given: the % may be the effect or the level left
Spodoptera frugiperda [30] = experiment: Growth inhibitory activity against po dosed fourth-instar larvae of Spodoptera frugiperda (fall armyworm) assessed as proportion of prothetely appearance of precocious pupal structure in larvae after 48 to 72 hr; assay type: functional; set-up: scale not given: the % may be the effect or the level left
Spodoptera frugiperda [31] = experiment: Growth inhibitory activity against first-instar larval stage of Spodoptera frugiperda (fall armyworm) fed with compound incorporated diet assessed as length gained at 20 ug/ml after 7 days (reference value: 100%); assay type: functional
Spodoptera frugiperda [32] = experiment: Growth inhibitory activity against Spodoptera frugiperda (fall armyworm) larvae fed with compound containing diet assessed as relative growth index at 5 ug/ml (reference value: 1.0 no_unit); assay type: functional
Spodoptera frugiperda [33] = experiment: Insecticidal activity against first-instar larval stage of Spodoptera frugiperda (fall armyworm) fed with compound incorporated diet assessed as mortality at 50 ug/ml after 7 days (reference value: 5.6%); assay type: functional; details: 168 h
Spodoptera frugiperda [34] = experiment: Acute toxicity against last larval stage of Spodoptera frugiperda (fall armyworm) assessed as survival at 10 ug/ml applied topically onto abdomen measured after 24 hr (reference value: 98.8 +/-3.5%); assay type: functional
Spodoptera frugiperda [35] = experiment: Growth inhibitory activity against Spodoptera frugiperda (fall armyworm) larvae fed with compound containing diet assessed as growth index at 20 ug/ml (reference value: 0.95 +/-0.02 no_unit); assay type: functional
Spodoptera frugiperda [36] = experiment: Growth inhibitory activity against Spodoptera frugiperda (fall armyworm) larvae fed with compound containing diet assessed as relative growth index at 35 ug/ml (reference value: 1.0 no_unit); assay type: functional
Spodoptera frugiperda [37] = experiment: Growth inhibitory activity against Spodoptera frugiperda (fall armyworm) larvae fed with compound containing diet assessed as growth index at 35 ug/ml (reference value: 0.95 +/-0.02 no_unit); assay type: functional

| SMILES | Weight gain relative to control (Spodoptera frugiperda [1]) | Activity (Spodoptera frugiperda [2]) | mortality at 35 µg/mL (Spodoptera frugiperda [3]) | Activity (Spodoptera frugiperda [4]) | Activity (Spodoptera frugiperda [5]) | Length gained (% of control) (Spodoptera frugiperda [6]) | Larval length gained (% of control) (Spodoptera frugiperda [7]) | Growth_index (Spodoptera frugiperda [8]) | Activity (Spodoptera frugiperda [9]) | mortality at 5 µg/mL (Spodoptera frugiperda [10]) | mortality at 10 µg/mL (Spodoptera frugiperda [11]) | mortality at 5 µg/mL (Spodoptera frugiperda [12]) | Length gained relative to control (Spodoptera frugiperda [14]) | Length gained (% of control) (Spodoptera frugiperda [17]) | Length gain relative to control (Spodoptera frugiperda [18]) | Weight gain relative to control (Spodoptera frugiperda [19]) | inhibition at 20 µg/mL (Spodoptera frugiperda [21]) | Larval weight gain relative to control (Spodoptera frugiperda [22]) | Growth_index (Spodoptera frugiperda [23]) | mortality at 10 µg/mL (Spodoptera frugiperda [24]) | further results |
| --- | --- | --- | --- | --- | --- | --- | --- | --- | --- | --- | --- | --- | --- | --- | --- | --- | --- | --- | --- | --- | --- |
| C[C@H]1[C@H](C)CC[C@]2(C(=O)O)CC[C@]3(C)C(=CC[C@@H]4[C@@]5(C)CC[C@H](O)C(C)(C)[C@@H]5CC[C@]43C)[C@H]12 [URSOLIC ACID] | 0% | Active | 46.8% | 49.2% | 52.5% | 57.2% | 10.7% | 0.73 | 68.6% | 4.2% | 81.3% | 79.1% | 48.4% | 0% | 3.4% | 30.1% | 0% | 51.9% | 0.29 | 16.7% | mortality at 50 µg/mL (Drosophila melanogaster [13]): 65.2%; mortality (Spodoptera frugiperda [15]): Active; inhibition (INH) (Spodoptera frugiperda [16]): 0%; mortality (Spodoptera frugiperda [20]): 100%; mortality at 10 µg/mL (Drosophila melanogaster [25]): 7%; Growth_index (Spodoptera frugiperda [26]): 0.69; Weight gain (% of control) (Spodoptera frugiperda [27]): 47.4%; Length gained relative to control (Spodoptera frugiperda [28]): 6.7%; Activity (Spodoptera frugiperda [29]): 28.6%; Activity (Spodoptera frugiperda [30]): 30%; Length gained relative to control (Spodoptera frugiperda [31]): 8.9%; Growth_index (Spodoptera frugiperda [32]): 0.98; mortality at 50 µg/mL (Spodoptera frugiperda [33]): 79.1%; Activity (Spodoptera frugiperda [34]): 52.9%; Growth_index (Spodoptera frugiperda [35]): 0.28 |
| CC(C)c1ccc2c(c1)CC[C@H]1[C@](C)(CO)CCC[C@]21C [POMIFERIN A] | 33.6% | Active | 63% | 42.3% | 56.2% | 85.6% | 79% | 0.98 | 88.3% | 33.3% | 5.6% | 4.16% | 59.4% | 37.4% | 33.3% | 50.6% | 0% | 93.5% | 0.96 | 41.7% | Growth_index (Spodoptera frugiperda [36]): 0.75; mortality at 50 µg/mL (Drosophila melanogaster [13]): 77%; mortality at 10 µg/mL (Drosophila melanogaster [25]): 13.3%; Growth_index (Spodoptera frugiperda [26]): 0.93; Weight gain (% of control) (Spodoptera frugiperda [27]): 65.8%; Growth_index (Spodoptera frugiperda [37]): 0.71; Length gained relative to control (Spodoptera frugiperda [28]): 42.5%; Activity (Spodoptera frugiperda [29]): 41.8%; Activity (Spodoptera frugiperda [30]): 30%; Length gained relative to control (Spodoptera frugiperda [31]): 64.2%; Growth_index (Spodoptera frugiperda [32]): 0.99; mortality at 50 µg/mL (Spodoptera frugiperda [33]): 83.3%; Activity (Spodoptera frugiperda [34]): 69.1%; Growth_index (Spodoptera frugiperda [35]): 0.91 |
| C=C[C@]1(C)CC[C@H]2C(=CC[C@@H]3[C@](C)(CO)CC[C@@H]4C[C@@]432)C1 | 0% | Active | 98.4% | 1.4% | 6.8% | 55% | 39% | 0.25 | 68.7% | 20.8% | 68.6% | 55.8% | 30.8% | 0% | 0% | 0% | 0% | 20.1% | 0.19 | 37.3% | Growth_index (Spodoptera frugiperda [36]): 0.1; mortality (Spodoptera frugiperda [15]): Active; inhibition (INH) (Spodoptera frugiperda [16]): 0%; mortality (Spodoptera frugiperda [20]): 100%; mortality at 10 µg/mL (Drosophila melanogaster [25]): 30%; Growth_index (Spodoptera frugiperda [26]): 0.21; Weight gain (% of control) (Spodoptera frugiperda [27]): 10.6%; Growth_index (Spodoptera frugiperda [37]): 0.09; Length gained relative to control (Spodoptera frugiperda [28]): 7.5%; Activity (Spodoptera frugiperda [29]): 0%; Activity (Spodoptera frugiperda [30]): 30%; Length gained relative to control (Spodoptera frugiperda [31]): 18.3%; Growth_index (Spodoptera frugiperda [32]): 0.45; mortality at 50 µg/mL (Spodoptera frugiperda [33]): 100%; Activity (Spodoptera frugiperda [34]): 3.5%; Growth_index (Spodoptera frugiperda [35]): 0.19 |
